Experimental data: US12714682B2, “Calixarene compounds and uses thereof” (UNIVERSITÄT WIEN, priority 2019, dated 2026)

How the values were obtained:
Osteopontin (OPN) = assay: 15N-1H HSQC NMR binding to osteopontin; conditions: HS compared with SCA-744
Experimental: In order to verify the predicted heparan sulfate mimicking activity of SCA-744, its physical interaction was probed with a prototypical HS-binding protein Osteopontin (OPN), a component of the extracellular matrix (ECM). To this end, NMR spectroscopy was used to directly probe the interaction and map the location of the interaction site along the protein backbone. The experimental strategy was as follows: First, ^15N-labelled OPN was prepared following well-established molecular biology technology techniques. Individual residue positions are directly monitored via the so-called ^15N-^1H Heteronuclear Single-Quantum Coherence (HSQC) spectroscopy, where individual cross peaks in the two-dimensional (2D) frequency spectrum corresponds to individual residue positions (amino acids) of the protein. Ligand binding changes the chemical environment of residues located in the binding site and leads to a change in the HSQC spectrum. Since the signal assignment is available, the residue positions which are affected by ligand binding can easily be identified by comparing HSQC spectra of the apo (ligand-free) and ligand-bound state of the protein (FIG. 7A). […] It is very convenient to analyze the chemical shift changes (induced by ligand binding) as a function of residue positions (FIG. 7B,C). Residues that display the largest chemical shift changes are typically part of the binding interface. […] Therefore, it can be concluded that SCA-744 and HS share the same ligand interaction sites and therefore are in competition for binding.

[1] = Cytotoxicity, CellTiter-Glo cell viability; assay type: cell-based; conditions: human, HEK 293 cells (printed as HEK 293 neuroblastoma cell lines), 72 h treatment, read-out: EC50 cytotoxicity (cell viability, ATP)
Experimental: FIG. 19.: In-vitro assessment of SCA-744 (A) and SCA-754 (B) cytotoxicity. Experiments were performed using HEK 293 […] cell lines. The effect of SCA-744 and SCA-754 on cell viability was assessed using a standard ATP, CellTiter-Glo® Luminescent Cell Viability Assay following 72 hours treatment.
In vitro assessment of cytotoxicity of SCA-744 and SCA-754 in mammalian cells. 72 h following SCA-744 and SCA-754-treatment, cell viability was assessed using a standard ATP method, CellTiter-Glo® Luminescent Cell Viability Assay.

[2] = system: THP-1 human monocytic cell line; assay: LPS-stimulated THP-1 macrophage cytokine production (LEGENDplex); assay type: cell-based; conditions: 10 ng/ml LPS; 30 and 150 μM; FIG. 3
Experimental: A specific anti-inflammatory effect or activity of a compound is proven, if the compound can decrease the production of one of IL-1B, IL-6 and TNFα in human THP1 macrophages following LPS stimulation, as determined by a standard assay: THP-1 human monocytic cell lines are treated with 100 nM of Phorbol 12-myristate 13-acetate (PMA) for 48 h to induce mature macrophage-like state. Cells are then stimulated with 100 ng/ml of LPS in the absence and presence of 500 μM of compound. After 6 hours, supernatants of treated and untreated cells are collected, and cytokine levels determined using the Human Inflammatory panel LEGENDplex Human Pro-inflammatory Chemokine Panel (Cat. No. 740118). A positive result is considered if the compound is capable of reduce or block the production of IL-1β, IL-6, and TNFα in human THP1 macrophages after LPS stimulation.
Following cells were treated with [10 ng/ml] LPS in the absence and presence 10, 100 and 500 μM of SCA-744. Cytokine levels were determined by LEGENDplex™ Human Inflammation Panel assay from BioLegend. The bar heights represent the concentration means compared to LPS alone of 3 independent experiments carried out in triplicates.
Cells were treated with 100 nM of Phorbol 12-myristate 13-acetate (PMA) for 48 h to induce mature macrophage-like state. Cells were then stimulated with 100 ng/ml of Lipopolysaccharides (LPS) in the absence and presence of 500 μM of SCA-744. After 6 hours, supernatants of treated and untreated cells were collected and the levels of three major pro-inflammatory cytokines TNF-α, IL-6 and IL-1ß were determined using the Human Inflammatory panel of LEGENDPLEX Multi-Analyte Flow assay.

neuroblastoma cells = assay: Protection from MPP+ induced oxidative stress, CellTiter-Glo viability; assay type: cell-based; conditions: for protection from MPP+ induced apoptosis / damage: 0.1-1000 μM, 12 h
Experimental: Several in-vivo and in-vitro studies find that MPP+ exerts oxidative stress on cells^22. MPP+×toxicity is based on its uptake into dopaminergic neurons. MPP+ accumulate into the mitochondria, inhibiting the complex-I leading to ATP depletion, increased reactive oxygen species (ROS) production, and apoptotic cell death^23. 12 h following MPP+ treatment and SCA-744 and CAL-X incubation, cell viability was assessed using a standard ATP method, CellTiter-Glo® Luminescent Cell Viability Assay.

Compound | binding sites on OPN (chemical shift changes by residue) (Osteopontin (OPN)) | EC50 at 72 h [1] [µM] | inhibition of LPS-induced TNF-α, IL-ß and IL-6 [2] | MPP+ protection relative to SCA-744 (neuroblastoma cells; 0.2 μM versus 1 μM) [× times] | protection from MPP+ induced apoptosis / damage (neuroblastoma cells) | protection from MPP+ induced apoptosis / damage (neuroblastoma cells; listed as CAL-X) | concentration for MPP+ protection (neuroblastoma cells; 12 h following MPP+ treatment, CellTiter-Glo) [µM]
heparan sulfate [HS, reference compound] | overlapping binding sites |  |  |  |  |  | 
Cc1cc2c(O)c(c1)Cc1cc(S(=O)(=O)O)cc(c1O)Cc1cc(S(=O)(=O)O)cc(c1O)Cc1cc(S(=O)(=O)O)cc(c1O)C2 [SCA-754, Trisodium 25,26,27,28-tetrahydroxycalix(4)arene-23-methyl-5,11,17-trisulfonate] |  | 1000 | Dose-dependent inhibition | 5 | protects against oxidative stress from MPP+ induced damage | protected neuroblastoma cells from MPP+ induced apoptosis | 0.2
